Several values for one entry are separate records, joined by “and”; a condition that tells them apart may be missing. Identical values can stand only once. Inconclusive results and toxic doses are left out.
Test system: BDF1 mice, P388 leukemia ip, median survival T/C
Test: NCI In Vivo Anticancer Drug Screen. Data for tumor model P388 Leukemia (intraperitoneal) in B6D2F1 (BDF1) mice
Settings: endpoint: median survival time, higher = longer survival
How it was run: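 Transplantable tumour in mice; compound vs vehicle dosing; survival scored; ratio of treated to control reported.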

[1] = dose: 100.0 mg/kg/injection, schedule: Q01DX009 (ip), vehicle: Klucel (hydroxypropylcellulose) (HPC)
[2] = dose: 100.0 mg/kg/injection, schedule: Q04DX003 (ip), vehicle: Klucel (hydroxypropylcellulose) (HPC)
[3] = dose: 200.0 mg/kg/injection, schedule: Q01DX009 (ip), vehicle: Klucel (hydroxypropylcellulose) (HPC)
[4] = dose: 200.0 mg/kg/injection, schedule: Q04DX003 (ip), vehicle: Klucel (hydroxypropylcellulose) (HPC)
[5] = dose: 400.0 mg/kg/injection, schedule: Q01DX009 (ip), vehicle: Klucel (hydroxypropylcellulose) (HPC)
[6] = dose: 400.0 mg/kg/injection, schedule: Q04DX003 (ip), vehicle: Klucel (hydroxypropylcellulose) (HPC)
[7] = dose: 100.0 mg/kg/injection, schedule: Q01DX009 (ip), vehicle: saline with Tween-80
[8] = dose: 200.0 mg/kg/injection, schedule: Q01DX009 (ip), vehicle: saline with Tween-80
[9] = dose: 12.5 mg/kg/injection, schedule: Q04DX003 (ip), vehicle: saline
[10] = dose: 20.0 mg/kg/injection, schedule: Q01DX010 (ip), vehicle: saline
[11] = dose: 25.0 mg/kg/injection, schedule: Q04DX003 (ip), vehicle: saline with Tween-80
[12] = dose: 50.0 mg/kg/injection, schedule: Q01DX009 (ip), vehicle: saline with Tween-80
[13] = dose: 6.25 mg/kg/injection, schedule: Q01DX009 (ip), vehicle: saline
[14] = dose: 12.5 mg/kg/injection, schedule: Q01DX009 (ip), vehicle: saline
[15] = dose: 50.0 mg/kg/injection, schedule: Q04DX003 (ip), vehicle: Klucel (hydroxypropylcellulose) (HPC)

O=C(c1ccccc1)c1c2ccccc2c(-c2ccccc2)c2ccccc12 was tested, and the T/C [1] was 100 % of control, the T/C [2] was 91 % of control and the T/C [3] was 100 % of control. For the same molecule, the T/C [4] was 87 % of control, the T/C [5] was 111 % of control and the T/C [6] was 95 % of control.

For COc1cc2c(cc1OC)-c1ccc3cc4c(cc3c1N(C)C2)OCO4, the T/C (dose: 10.0 mg/kg/injection, schedule: Q01DX009 (ip), vehicle: other) was 123 % of control and the T/C (dose: 40.0 mg/kg/injection, schedule: Q01DX009 (ip), vehicle: other) was 155 % of control.

In the case of COC(=O)N1c2ccc(OC)cc2C=CC1C#N (configuration not stated), the T/C [7] is reported as 100 % of control, the T/C [8] is reported as 100 % of control and the T/C (dose: 400.0 mg/kg/injection, schedule: Q01DX009 (ip), vehicle: saline with Tween-80) is reported as 100 % of control.

In the case of CC12C=CC(=O)C=C1CCC1C3CCC(O)(C(=O)CO)C3(C)CC(O)C12F (configuration not stated), the T/C (dose: 25.0 mg/kg/injection, schedule: Q04DX003 (sc), vehicle: steriod suspending solution) is reported as 113 % of control, the T/C (dose: 50.0 mg/kg/injection, schedule: Q04DX003 (sc), vehicle: steriod suspending solution) is reported as 86 % of control and the T/C (dose: 56.25 mg/kg/injection, schedule: Q01DX009 (sc), vehicle: steriod suspending solution) is reported as 100 % of control. The T/C (dose: 100.0 mg/kg/injection, schedule: Q04DX003 (sc), vehicle: steriod suspending solution) was 86 % of control, the T/C (dose: 112.5 mg/kg/injection, schedule: Q01DX009 (sc), vehicle: steriod suspending solution) was 118 % of control and the T/C (dose: 150.0 mg/kg/injection, schedule: Q04DX003 (sc), vehicle: steriod suspending solution) was 104 % of control. The T/C (dose: 225.0 mg/kg/injection, schedule: Q01DX009 (sc), vehicle: steriod suspending solution) was 104 % of control and the T/C (dose: 225.0 mg/kg/injection, schedule: Q04DX003 (sc), vehicle: steriod suspending solution) was 90 % of control.

CN1C=c2c3c(ccc2=C2C=CC4C=C5OCOC5=CC4=C21)OCO3 (configuration not stated) was tested, and the T/C (dose: 5.0 mg/kg/injection, schedule: Q01DX010 (ip), vehicle: saline) was 110 % of control, the T/C (dose: 6.25 mg/kg/injection, schedule: Q04DX003 (ip), vehicle: saline) was 100 % of control and the T/C (dose: 10.0 mg/kg/injection, schedule: Q01DX010 (ip), vehicle: saline) was 100 % of control. For the same molecule, the T/C [9] was 100 % of control, the T/C [10] was 105 % of control and the T/C (dose: 25.0 mg/kg/injection, schedule: Q04DX003 (ip), vehicle: saline) was 109 % of control.

For CCc1ccc(C(=O)C2CC2)cc1, the T/C (dose: 100.0 mg/kg/injection, schedule: Q04DX003 (ip), vehicle: saline with Tween-80) was 104 % of control, the T/C (dose: 133.0 mg/kg/injection, schedule: Q01DX008 (ip), vehicle: saline with Tween-80) was 108 % of control and the T/C (dose: 200.0 mg/kg/injection, schedule: Q01DX008 (ip), vehicle: saline with Tween-80) was 116 % of control. For the same molecule, the T/C (dose: 200.0 mg/kg/injection, schedule: Q04DX003 (ip), vehicle: saline with Tween-80) was 112 % of control, the T/C (dose: 300.0 mg/kg/injection, schedule: Q01DX008 (ip), vehicle: saline with Tween-80) was 115 % of control and the T/C (dose: 400.0 mg/kg/injection, schedule: Q04DX003 (ip), vehicle: saline with Tween-80) was 104 % of control.

With CCCCC(OC(=O)c1ccccc1)c1cc(OC(=O)c2ccccc2)c2c(c1OC(=O)c1ccccc1)CC(C)=C(C)C2 (configuration not stated) the T/C (dose: 12.5 mg/kg/injection, schedule: Q04DX003 (ip), vehicle: saline with Tween-80) was 111 % of control and the T/C [11] was 107 % of control.

O=C1C=C(Nc2nc(O)cc(=O)[nH]2)c2ccccc2C1=O was tested, and the T/C (dose: 37.5 mg/kg/injection, schedule: Q01DX001 (ip), vehicle: Klucel (hydroxypropylcellulose) (HPC)) was 100 % of control, the T/C (dose: 75.0 mg/kg/injection, schedule: Q01DX001 (ip), vehicle: Klucel (hydroxypropylcellulose) (HPC)) was 100 % of control and the T/C (dose: 150.0 mg/kg/injection, schedule: Q01DX001 (ip), vehicle: Klucel (hydroxypropylcellulose) (HPC)) was 100 % of control. For the same molecule, the T/C (dose: 150.0 mg/kg/injection, schedule: Q04DX003 (ip), vehicle: Klucel (hydroxypropylcellulose) (HPC)) was 95 % of control.

With Cc1cc(=O)n(Cc2ccccc2)c(O)c1C the T/C [2] was 102 % of control and the T/C [4] was 94 % of control.

With Cc1ccc(S(=O)(=O)Nc2ccccc2)c(CC(O)(c2ccccc2)c2ccccc2)c1 the T/C [12] was 90 % of control and the T/C [7] was 95 % of control.

With O=C1CCCC2C3CC(CN12)C1CC(O)CCN1C3 (configuration not stated) the T/C [10] was 90 % of control, the T/C (dose: 40.0 mg/kg/injection, schedule: Q01DX010 (ip), vehicle: saline) was 100 % of control and the T/C (dose: 80.0 mg/kg/injection, schedule: Q01DX010 (ip), vehicle: saline) was 100 % of control.

For CS(=O)(=O)OCCN1CCC2(CC1)SSC1(CCN(CCOS(C)(=O)=O)CC1)S2, the T/C (dose: 3.12 mg/kg/injection, schedule: Q01DX009 (ip), vehicle: saline) was 95 % of control and 96 % of control, the T/C [13] was 115 % of control and the T/C (dose: 7.5 mg/kg/injection, schedule: Q04DX003 (ip), vehicle: saline) was 122 % of control. The T/C (dose: 10.0 mg/kg/injection, schedule: Q01DX009 (ip), vehicle: saline) was 154 % of control, the T/C [14] was 109 % of control and 115 % of control and the T/C [9] was 122 % of control.

With CC(=O)CC(=O)NCCCN1CCCCC1 the T/C (dose: 12.5 mg/kg/injection, schedule: Q01DX009 (ip), vehicle: saline with Tween-80) was 92 % of control, the T/C (dose: 25.0 mg/kg/injection, schedule: Q01DX009 (ip), vehicle: saline with Tween-80) was 88 % of control and the T/C [11] was 96 % of control. The T/C (dose: 50.0 mg/kg/injection, schedule: Q04DX003 (ip), vehicle: saline with Tween-80) was 88 % of control.

For CC1(C)C2CC34CCCN3C(=O)C2(CC12Nc1ccccc1C2=O)NC4=O (configuration not stated), the T/C (dose: 50.0 mg/kg/injection, schedule: Q01DX009 (ip), vehicle: saline) was 102 % of control, the T/C (dose: 100.0 mg/kg/injection, schedule: Q01DX009 (ip), vehicle: saline) was 109 % of control and the T/C (dose: 200.0 mg/kg/injection, schedule: Q01DX009 (ip), vehicle: saline) was 113 % of control.

In the case of O=[N+]([O-])c1ccc(/C=C/c2ncc[nH]2)o1, the T/C [15] is reported as 100 % of control, the T/C [2] is reported as 100 % of control and the T/C [4] is reported as 100 % of control.

For C[N+](C)(C)CCCSC1=NCCN1, the T/C [13] was 106 % of control, the T/C [14] was 107 % of control and the T/C (dose: 25.0 mg/kg/injection, schedule: Q01DX009 (ip), vehicle: saline) was 103 % of control.

In the case of COc1ccc2c(c1OC)C(=O)NC2=O, the T/C (dose: 50.0 mg/kg/injection, schedule: Q01DX008 (ip), vehicle: Klucel (hydroxypropylcellulose) (HPC)) is reported as 108 % of control, the T/C [15] is reported as 100 % of control and the T/C (dose: 100.0 mg/kg/injection, schedule: Q01DX008 (ip), vehicle: Klucel (hydroxypropylcellulose) (HPC)) is reported as 88 % of control. The T/C [2] was 100 % of control and the T/C [4] was 90 % of control.

For NC1=NS(=O)(=O)N=C(N)C1=NNc1ccccc1, the T/C [12] was 92 % of control, the T/C [7] was 99 % of control and the T/C [8] was 103 % of control.

For Nc1ccc(N)c2c1C(=O)c1cccc([N+](=O)[O-])c1C2=O, the T/C (dose: 25.0 mg/kg/injection, schedule: Q01DX010 (ip), vehicle: carboxymethylcellulose (CMC)) was 95 % of control, the T/C (dose: 50.0 mg/kg/injection, schedule: Q01DX010 (ip), vehicle: carboxymethylcellulose (CMC)) was 105 % of control and the T/C (dose: 100.0 mg/kg/injection, schedule: Q01DX010 (ip), vehicle: carboxymethylcellulose (CMC)) was 115 % of control. The T/C (dose: 200.0 mg/kg/injection, schedule: Q01DX010 (ip), vehicle: carboxymethylcellulose (CMC)) was 105 % of control and the T/C (dose: 400.0 mg/kg/injection, schedule: Q01DX010 (ip), vehicle: carboxymethylcellulose (CMC)) was 110 % of control.

In the case of COc1cc2c(cc1OC)-c1ncnc(-c3ccccc3)c1C2, the T/C [1] is reported as 100 % of control, the T/C [2] is reported as 108 % of control and the T/C [3] is reported as 100 % of control. For the same molecule, the T/C [4] was 91 % of control, the T/C [5] was 95 % of control and the T/C [6] was 95 % of control.

For CSC(=S)NNC(=O)c1ccc([N+](=O)[O-])cc1, the T/C (dose: 3.13 mg/kg/injection, schedule: Q04DX003 (ip), vehicle: saline sonified) was 90 % of control, the T/C (dose: 6.25 mg/kg/injection, schedule: Q04DX003 (ip), vehicle: saline sonified) was 100 % of control and the T/C (dose: 12.5 mg/kg/injection, schedule: Q04DX003 (ip), vehicle: saline sonified) was 95 % of control.

COC(=O)/C(N=Nc1cccc(C)c1)=C(\C)O was tested, and the T/C [12] was 97 % of control and the T/C [7] was 103 % of control.

Source: PubChem BioAssay AID328 (DTP/NCI, 2004)
